Calls of active or inactive are those of the source.
Experiments:
[1] = Luminescence Cell-Based Dose Retest to Confirm Inhibitors of Cancer Stem Cells. [Related pubchem assays (depositor defined):AID2717, AID2721]; assay type: functional; conditions: Homo sapiens
[2] = molecular target: Heat shock protein HSP 90-alpha (Homo sapiens, UniProt P07900); assay type: functional, organism-based
[3] = reduction of Shn3 3'UTR-driven luciferase in osteoblasts – cell-based, Clone20 osteoblasts, firefly luciferase, cherry-picked, dose response (AID 624132); assay type: functional;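 also: firefly luciferase luminescence from reporter carrying the Shn3 3'UTR in osteoblasts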
[4] = non-specific 3'UTR reporter inhibition in Clone20-Shn3RL – cell-based, Renilla luciferase, cherry-picked, counter-screen for Shn3 inhibitor project, dose response (AID 624133); assay type: functional
[5] = molecular target: T1, RNA-binding protein pos-1 (Caenorhabditis elegans, UniProt G5EF15); test: disruptors of C. elegans POS-1 RNA interaction – biochemical, fluorescence polarization, dose response (AID 1964);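 also: purified POS-1 fused to maltose binding protein made in E. coli; potency of compounds blocking POS-1 binding to fluorescent RNA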
T1 sequence (G5EF15 whole entry): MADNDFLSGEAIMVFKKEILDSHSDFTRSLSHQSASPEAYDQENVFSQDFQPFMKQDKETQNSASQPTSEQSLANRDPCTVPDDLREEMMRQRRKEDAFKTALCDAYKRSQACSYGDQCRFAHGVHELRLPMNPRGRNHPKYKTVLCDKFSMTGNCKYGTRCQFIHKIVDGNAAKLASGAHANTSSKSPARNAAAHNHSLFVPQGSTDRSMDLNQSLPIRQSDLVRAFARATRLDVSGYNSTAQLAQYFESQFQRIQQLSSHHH

[6] = molecular target: T2, Zinc finger protein mex-5 (Caenorhabditis elegans, UniProt Q9XUB2); test: potency of MEX-5 RNA-binding blockers – biochemical, C. elegans, fluorescence polarization, dose response (AID 1960)
T2 sequence (Q9XUB2 whole entry): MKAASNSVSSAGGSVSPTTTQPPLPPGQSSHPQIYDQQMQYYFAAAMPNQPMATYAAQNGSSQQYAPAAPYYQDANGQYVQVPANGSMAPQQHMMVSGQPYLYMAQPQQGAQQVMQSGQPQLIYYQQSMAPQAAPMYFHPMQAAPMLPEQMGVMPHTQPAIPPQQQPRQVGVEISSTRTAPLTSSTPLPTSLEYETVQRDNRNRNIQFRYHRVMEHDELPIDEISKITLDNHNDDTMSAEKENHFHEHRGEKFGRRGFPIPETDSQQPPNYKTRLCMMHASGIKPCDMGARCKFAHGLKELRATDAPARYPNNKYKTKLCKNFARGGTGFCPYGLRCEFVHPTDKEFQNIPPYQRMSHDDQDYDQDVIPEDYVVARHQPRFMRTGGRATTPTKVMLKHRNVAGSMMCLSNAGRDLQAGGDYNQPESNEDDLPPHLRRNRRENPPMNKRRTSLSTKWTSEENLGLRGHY

Large T antigen = Large T antigen (Simian virus 40, UniProt P03070); assay type: functional, Betapolyomavirus macacae;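 also: Confirmatory-stage PubChem screen for compounds that inhibit SV40 T antigen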
Streptokinase A = molecular target: T3, Streptokinase A (Streptococcus pyogenes serotype M1, UniProt P10520); test: viability-normalized secreted streptokinase activity reduction – plasminogen activation absorbance, OD405, dose response (AID 1914); assay type: functional, Streptococcus pyogenes M1 GAS;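 also: secreted streptokinase activity via plasminogen activation per viability signal from cell pellet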
T3 sequence (P10520 whole entry): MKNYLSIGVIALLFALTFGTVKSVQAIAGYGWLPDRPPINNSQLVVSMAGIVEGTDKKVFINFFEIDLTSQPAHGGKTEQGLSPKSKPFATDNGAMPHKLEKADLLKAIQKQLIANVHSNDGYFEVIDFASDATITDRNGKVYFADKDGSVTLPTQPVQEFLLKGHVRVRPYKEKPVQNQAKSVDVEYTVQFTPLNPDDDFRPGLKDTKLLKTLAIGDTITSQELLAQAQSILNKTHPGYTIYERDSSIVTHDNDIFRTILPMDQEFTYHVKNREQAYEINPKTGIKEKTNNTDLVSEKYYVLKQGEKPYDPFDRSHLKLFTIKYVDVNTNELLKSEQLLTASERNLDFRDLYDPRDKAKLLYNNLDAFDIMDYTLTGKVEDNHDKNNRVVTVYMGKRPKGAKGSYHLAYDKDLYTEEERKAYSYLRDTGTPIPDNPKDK

[7] = molecular target: T4, High affinity choline transporter 1 (Homo sapiens, UniProt Q9GZV3); test: human choline transporter blockers, potency – cell-based, 5-point CRC, membrane potential dye, dose response (AID 504840); assay type: functional
T4 sequence (Q9GZV3 whole entry): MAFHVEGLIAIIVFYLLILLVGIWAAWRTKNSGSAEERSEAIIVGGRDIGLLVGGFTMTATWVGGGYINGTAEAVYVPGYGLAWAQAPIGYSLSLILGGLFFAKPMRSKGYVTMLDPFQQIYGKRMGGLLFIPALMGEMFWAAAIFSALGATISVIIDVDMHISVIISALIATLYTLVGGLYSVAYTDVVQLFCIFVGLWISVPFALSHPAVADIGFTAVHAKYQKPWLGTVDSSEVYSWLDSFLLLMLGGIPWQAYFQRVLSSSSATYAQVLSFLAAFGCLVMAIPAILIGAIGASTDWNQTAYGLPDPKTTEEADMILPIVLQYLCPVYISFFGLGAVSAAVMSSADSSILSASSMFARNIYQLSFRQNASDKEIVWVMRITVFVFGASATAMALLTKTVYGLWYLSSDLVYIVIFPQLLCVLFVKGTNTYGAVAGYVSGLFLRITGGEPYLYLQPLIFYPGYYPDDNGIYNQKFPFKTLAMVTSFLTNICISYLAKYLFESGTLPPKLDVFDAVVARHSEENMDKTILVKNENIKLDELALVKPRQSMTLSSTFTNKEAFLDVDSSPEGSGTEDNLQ

[8] = molecular target: FAD-linked sulfhydryl oxidase ALR (Homo sapiens, UniProt P55789); test: ALR-catalysed DTT oxidation blockers – biochemical, H2O2 detection, luminescence, cherry-pick, dose response (AID 493248)
[9] = molecular target: T5, DNA repair protein RAD52 homolog (Homo sapiens, UniProt P43351); assay type: functional, biochemical
T5 sequence (P43351 whole entry): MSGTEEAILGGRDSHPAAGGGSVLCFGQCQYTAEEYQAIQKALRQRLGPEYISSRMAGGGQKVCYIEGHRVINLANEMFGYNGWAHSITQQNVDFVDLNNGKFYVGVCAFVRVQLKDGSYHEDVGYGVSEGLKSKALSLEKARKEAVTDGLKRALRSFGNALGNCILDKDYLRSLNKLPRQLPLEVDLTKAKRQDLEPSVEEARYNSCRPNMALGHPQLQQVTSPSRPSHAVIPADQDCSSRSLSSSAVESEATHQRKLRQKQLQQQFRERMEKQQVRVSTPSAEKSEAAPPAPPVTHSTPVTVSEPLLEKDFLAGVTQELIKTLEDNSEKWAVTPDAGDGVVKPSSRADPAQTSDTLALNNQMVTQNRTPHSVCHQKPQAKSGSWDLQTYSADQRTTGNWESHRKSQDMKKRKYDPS

[10] = molecular target: T6, Rac GTPase-activating protein 1 (Homo sapiens, UniProt Q9H0H5); test: blockers of MgcRacGAP-driven Rac1 GTP hydrolysis – biochemical, ADP Hunter fluorescence, primary and confirmatory, confirmation (AID 624330); assay type: functional
T6 sequence (Q9H0H5 whole entry): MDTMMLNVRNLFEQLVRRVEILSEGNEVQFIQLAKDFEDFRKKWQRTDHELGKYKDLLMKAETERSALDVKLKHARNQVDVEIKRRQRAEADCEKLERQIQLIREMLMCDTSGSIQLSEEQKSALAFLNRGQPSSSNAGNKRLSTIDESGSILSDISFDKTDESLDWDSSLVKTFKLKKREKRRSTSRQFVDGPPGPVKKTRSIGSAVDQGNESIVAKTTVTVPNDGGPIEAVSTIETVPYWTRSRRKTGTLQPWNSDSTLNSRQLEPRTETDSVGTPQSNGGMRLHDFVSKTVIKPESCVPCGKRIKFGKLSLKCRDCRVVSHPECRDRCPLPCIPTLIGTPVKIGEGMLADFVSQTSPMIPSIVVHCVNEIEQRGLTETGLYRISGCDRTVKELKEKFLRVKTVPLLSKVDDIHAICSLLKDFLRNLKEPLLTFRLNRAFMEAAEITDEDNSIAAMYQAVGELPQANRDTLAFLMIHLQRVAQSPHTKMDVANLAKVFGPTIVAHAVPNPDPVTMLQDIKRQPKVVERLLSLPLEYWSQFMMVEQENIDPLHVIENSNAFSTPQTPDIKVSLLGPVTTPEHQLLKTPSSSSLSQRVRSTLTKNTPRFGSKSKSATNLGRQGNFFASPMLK

[11] = molecular target: T7, Calpain-2 catalytic subunit (Sus scrofa, UniProt P43367); test: m-calpain protease blockers, concentration series – biochemical, fluorogenic peptide substrate, dose response (AID 1420); assay type: functional
T7 sequence (P43367 whole entry): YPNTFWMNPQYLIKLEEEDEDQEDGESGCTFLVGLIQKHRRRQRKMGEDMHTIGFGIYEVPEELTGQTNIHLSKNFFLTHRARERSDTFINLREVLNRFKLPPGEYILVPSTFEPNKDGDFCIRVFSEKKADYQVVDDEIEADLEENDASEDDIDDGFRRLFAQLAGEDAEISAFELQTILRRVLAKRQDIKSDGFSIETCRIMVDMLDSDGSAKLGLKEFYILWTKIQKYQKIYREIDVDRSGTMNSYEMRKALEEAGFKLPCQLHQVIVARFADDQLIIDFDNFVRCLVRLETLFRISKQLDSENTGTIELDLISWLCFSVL

[12] = molecular target: Induced myeloid leukemia cell differentiation protein Mcl-1 (Homo sapiens, UniProt Q07820); assay type: functional
[13] = molecular target: T8, Carboxy-terminal domain RNA polymerase II polypeptide A small phosphatase 1 (Homo sapiens, UniProt Q9GZU7); test: CTDSP1 inhibitors, concentration-response, biochemical, absorbance readout, ultra-high-throughput screen actives (AID 540297); assay type: functional
T8 sequence (Q9GZU7 whole entry): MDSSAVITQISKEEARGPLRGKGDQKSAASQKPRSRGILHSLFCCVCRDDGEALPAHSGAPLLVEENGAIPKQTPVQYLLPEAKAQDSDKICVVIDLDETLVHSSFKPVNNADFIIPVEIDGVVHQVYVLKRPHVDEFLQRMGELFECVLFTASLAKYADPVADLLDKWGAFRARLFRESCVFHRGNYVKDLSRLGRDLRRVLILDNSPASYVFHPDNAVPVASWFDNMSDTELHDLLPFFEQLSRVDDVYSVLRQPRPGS

Chain of Large T antigen (P03070 whole entry): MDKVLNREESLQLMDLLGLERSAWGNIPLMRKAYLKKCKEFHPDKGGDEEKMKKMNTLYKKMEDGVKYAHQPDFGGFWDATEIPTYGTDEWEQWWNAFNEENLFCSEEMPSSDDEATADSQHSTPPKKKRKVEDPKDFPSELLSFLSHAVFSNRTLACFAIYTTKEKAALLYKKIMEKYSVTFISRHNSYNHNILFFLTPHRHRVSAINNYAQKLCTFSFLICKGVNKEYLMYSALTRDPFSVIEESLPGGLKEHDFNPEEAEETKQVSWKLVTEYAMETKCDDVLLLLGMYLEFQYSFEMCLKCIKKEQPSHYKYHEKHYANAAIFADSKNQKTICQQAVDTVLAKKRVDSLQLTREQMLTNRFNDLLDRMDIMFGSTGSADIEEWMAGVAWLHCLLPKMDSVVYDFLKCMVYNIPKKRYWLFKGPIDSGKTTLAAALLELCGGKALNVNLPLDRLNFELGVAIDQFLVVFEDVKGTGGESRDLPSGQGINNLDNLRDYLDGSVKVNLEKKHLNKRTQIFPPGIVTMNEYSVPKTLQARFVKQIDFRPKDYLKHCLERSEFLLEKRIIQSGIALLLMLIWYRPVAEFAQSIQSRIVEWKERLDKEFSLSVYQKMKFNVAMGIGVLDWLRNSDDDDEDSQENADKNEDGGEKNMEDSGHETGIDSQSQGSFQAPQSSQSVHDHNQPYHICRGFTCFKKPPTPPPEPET
Chain of Induced myeloid leukemia cell differentiation protein Mcl-1 (Q07820 whole entry, the tested form may be a part): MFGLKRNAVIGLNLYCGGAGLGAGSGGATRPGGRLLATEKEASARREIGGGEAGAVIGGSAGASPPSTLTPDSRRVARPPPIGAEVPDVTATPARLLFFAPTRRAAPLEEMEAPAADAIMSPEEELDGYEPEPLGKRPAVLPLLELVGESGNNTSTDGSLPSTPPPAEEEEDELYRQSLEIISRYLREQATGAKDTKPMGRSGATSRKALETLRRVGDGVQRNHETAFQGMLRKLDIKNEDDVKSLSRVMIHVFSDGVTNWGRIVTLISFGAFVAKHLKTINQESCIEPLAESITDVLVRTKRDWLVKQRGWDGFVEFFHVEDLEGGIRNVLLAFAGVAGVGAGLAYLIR
Chain of FAD-linked sulfhydryl oxidase ALR (P55789 whole entry): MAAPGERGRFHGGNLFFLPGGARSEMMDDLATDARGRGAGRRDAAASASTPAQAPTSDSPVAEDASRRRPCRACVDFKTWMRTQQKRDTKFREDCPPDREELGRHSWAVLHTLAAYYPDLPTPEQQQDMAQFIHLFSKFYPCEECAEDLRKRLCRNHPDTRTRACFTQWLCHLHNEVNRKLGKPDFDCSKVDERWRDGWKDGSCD

COc1cc(C#Cc2c(-c3cncn3C)n(C)c3ccc(-c4ccc(OC)nc4)cc23)cc(OC)c1
AC50 [1]: 4.95 µM (active)
AC50 [2]: 5.5 µM (active)
AC50 [3]: 20.5 µM (active)
AC50 [4]: 21.2 µM (active)

COc1ccc(C2=CC3=C(Br)C(=O)C(C)(OC(=O)c4ccc(Cl)nc4)C(=O)C3=CO2)cc1 (centres undefined)
EC50 [5]: > 300 µM (not active)
EC50 [6]: > 300 µM (not active)
IC50 (Large T antigen): 56.7 µM (active)

CCOC(=O)c1[n-]c2ccccc2c1[N+]#N
EC50 (Streptokinase A): > 150 µM (not active)
AC50 [2]: 0.444 µM (active)

CCOC(=O)c1sc(NC(=O)CCN2C(=O)c3cccc([N+](=O)[O-])c3C2=O)c(C(=O)OCC)c1C
IC50 [7]: 5.98 µM (active)

CC[C@@H](C)[C@H](NC(=O)Cc1c(C)c2cc3c(C)coc3c(C)c2oc1=O)C(=O)O
AC50 [8]: 2.39 µM (active)

O=C(CC(n1cncn1)C(Cl)(Cl)Cl)c1ccc([N+](=O)[O-])cc1 (centres undefined)
AC50 [2]: 4.15 µM (active)

CSc1nc(Cl)cc(Nc2ccc(O)cc2)n1
IC50 (Large T antigen): 17.8 µM (active)

O=C1C=CC(=O)N1c1ccc2ccccc2c1
AC50 [2]: 0.832 µM (active)

COc1cc(-c2cnc3c(NC=O)cc(-c4ccc(N5CCN(C)CC5)cc4)cn23)cc(OC)c1OC
AC50 [9]: 4.54 µM (active)

Nc1ccc2c(c1)-c1ccccc1S(=O)(=O)N2
EC50 [5]: > 300 µM (not active)
EC50 [6]: 12.2 µM (active)
IC50 (Large T antigen): 3.99 µM (active)

N=c1sccn1CC(=O)Nc1ccc(SC(F)F)cc1
AC50 [8]: 1.68 µM (active)

CC1(C)CC(=O)C(/C=N/c2ccc(O)cc2)=C(O)C1
IC50 (Large T antigen): 5.53 µM (active)
IC50 [10]: 17 µM (active)

Cc1ccc(-c2nnc(S)n2/N=C/c2c(C)nn(-c3ccccc3)c2O)cc1
AC50 [8]: 13.5 µM (active)

Cc1ccc(NC(=O)CN2C(=O)/C(=C3\SC(=S)N(C4CCS(=O)(=O)C4)C3=O)c3ccccc32)cc1 (centres undefined)
IC50 [11]: 9.72 µM (not active)
IC50 [12]: 24.1 µM (active)

COC(=O)Nc1ccc(S(=O)(=O)Nc2ccc(O)cc2)cc1
AC50 [8]: 1.38 µM (active)

CC(NC(=O)C1CC1)C(c1cccs1)N1CCN(c2ccccc2)CC1 (centres undefined)
AC50 [8]: 0.362 µM (active)

CC1CCCCC12NC(=O)N(CC(=O)Nc1ccc(S(=O)(=O)Nc3ncccn3)cc1)C2=O (centres undefined)
AC50 [8]: 6.47 µM (active)

Cc1ccc(-c2csc(NC(=O)c3cccc(C)c3)c2C(=O)O)cc1
IC50 [7]: 11.8 µM (active)

S=C(NCC1CCCO1)Nc1cc(Cl)c(Cl)cc1Cl (centres undefined)
IC50 [7]: 14.5 µM (active)

c1ccc(CCNc2c3c(nc4ncnn24)CCC3)cc1
IC50 [7]: 10.1 µM (active)

C=C(C)CSc1nnc(CCCCCNC(=O)OC(C)(C)C)o1
IC50 [7]: 6.92 µM (active)

COc1cc(C(=O)NC2CC(C)(C)CC(C)(C)C2)ccc1OC1CCN(C(C)=O)CC1
IC50 [7]: 13.8 µM (active)

O=C1NC(=O)N(c2ccccc2)C(=O)/C1=C\c1ccc2c3c(cccc13)CC2
EC50 [5]: > 300 µM (not active)
EC50 [6]: > 300 µM (not active)
IC50 (Large T antigen): 68.4 µM (active)
IC50 [12]: 5.04 µM (active)

CN(C)c1ccc(NC(=O)Cn2ncn3c(cc4ccccc43)c2=O)cc1
IC50 (Large T antigen): 29.6 µM (active)
IC50 [12]: 3.14 µM (active)

CN1CCN(CCCCOc2ccccc2C=O)CC1
AC50 [9]: 15.8 µM (active)

Cc1ccc(C(=O)O)cc1NC(=S)NC(=O)c1ccc(COc2ccccc2)cc1
IC50 [7]: 15.5 µM (active)
IC50 [13]: 6.25 µM (active)

O=C(CCn1cnc2ccccc21)N/N=C/c1ccc(O)cc1
IC50 (Large T antigen): 14.2 µM (active)
IC50 [10]: 51.6 µM (active)

COc1ccc(C(=O)NNS(=O)(=O)c2ccc(OC)cc2)cc1
AC50 [8]: 12.7 µM (active)

Source: ChEMBL document CHEMBL1201862, “PubChem BioAssay data set” (2004)
